≈ marks a conversion by molar mass, not a printed value.
Assays:
[1] = cited from earlier work
breast carcinoma = details: cited from earlier work
in vivo = details: Sprague-Dawley, rat
Description: All animal experiments were approved by the Institutional Animal Care and Use Committee of Chang Gung University and adhered to their experimental animal care guidelines. […] Brain tumors were induced in another 14 rats by injection of cultured C6 tumor cells. Briefly, C6 tumor cells (10^6 cells/plate) were injected into the brains using a microdialysis pump system (CMA Microdialysis). Animals underwent FUS treatment on Day 10 after tumor implantation to determine if the method could open an area of the BBB sufficiently large to cover the area of the induced tumors.
Before the FUS treatment, the rats were anesthetized by i.p. injection of chlorohydrate (30 mg/kg). The top of the cranium of each rat was shaved with clippers, and a PE-50 catheter was inserted into the jugular vein. The animal's head was attached tightly to a 4-cm^2 thin-film window directly under an acrylic water tank. The animal's cranial opening was filled with degassed water to serve as an acoustic coupling device. SonoVue® SF6-coated US microbubbles (mean diameter 2-5 μm, 2.5 μg/kg; Bracco) were administered i.v. before sonication (with a time lapse<10 s). Each bolus injection contained 0.1 mL of microbubble/kg of body weight mixed with 0.2 mL of saline solution. A heparin flush (0.2 mL) was subsequently performed.
Animal experiments were monitored using the 3-T magnetic resonance imager to localize the geometric center of the FUS and the energy exposure site. US was delivered to the brain transcranially using a MR-compatible spherical transducer (diameter, 60 mm; radius of curvature, 80 mm; frequency, 400 kHz, electric-to-acoustic efficiency, 70%; Imasonics) with the center of the focal zone positioned at a penetration depth of 2 to 3 mm in each hemisphere. Single burst-mode US was delivered, with a burst length of 10 ms, a pulse-repetition frequency of 1 Hz, and total sonication duration of 120 s. For optimization studies, the input electric power used was 2 W, corresponding to an acoustic negative peak (i/e., spatial-peak, temporal-peak) pressure amplitude measured through the animal cranium equal to 0.62 MPa.
In the MT treatment, a permanent magnet having a peak magnetic flux density of 0.18 T, 0.4 T or 0.55 T was used to produce an inhomogeneous magnetic field. To concentrate the magnetic flux density onto the disrupted region of the BBB, the magnet was tilted at an angle relative to the animal's brain, attached to the animal's scalp, and supported and tightened using a custom-made plastic belt for the desired duration (3-24 hrs). MRI images were acquired immediately after removal of the magnet.
Animals' brains were monitored by MRI after the FUS treatment and/or the MT treatment. All MRI images were acquired on a 3-T scanner using the standard wrist coil with an inner diameter of 13 cm. The animals were anesthetized with 2% isoflurane throughout the MRI imaging process, placed in an acrylic holder, and positioned in the center of the magnet. An i.v. bolus (0.1 mmol/kg) of gadopentetate dimeglumine MRI contrast agent (Magnevist; Berlex) was administered before scanning. To identify the region of the BBB disrupted by the FUS treatment, contrast-enhanced T1 turbo spin-echo sequences were acquired using the following parameters: repetition/echo time, 780 ms/15 ms; slice thickness, 1.4 mm; matrix size, 128×256; field of view, 39×60 mm (resolution, 0.3×0.3 mm). T2-weighted images were obtained to produce R2 maps both in gel phantom or in vivo experiments by using a double-TE spinecho sequence and acquired three times, using the following parameters: repetition time, 3,860 ms, echo time, 8/14, 28/57, and 85/228 ms; matrix, 128×256; field of view, 38×76 mm (resolution, 0.3×0.3 mm); and slice thickness, 1.4 mm.

Rat glioma C6 cells = test: Cell toxicity in vitro, XTT assay; type: cell-based; details: 12 hrs, no magnetic field
Description: Rat glioma C6 cells were cultured in the culture medium RPMI 1640 supplemented with 2.2 mg/mL sodium carbonate, 10% FBS, 50 μg/mL gentamycin, 50 μg/mL penicillin and 50 μg/mL streptomycin at 37° C. and 5% CO2. Approximately 10,000 cells were placed in each well of a 96-well culture plate and incubated in a humidified chamber at 37° C. and 5% CO2 for 24 hrs.
Before counting viable cells by the XTT assay, the culture medium in each well was removed and cells were incubated in 120 μL of XTT for 3 hrs. After the reaction, a 100 μL aliquot of the solution in each well was sampled and transferred to a 96-well counting dish, followed by measuring absorbance at OD490 using an ELISA reader, so as to determine cell viability (%). The experimental results were expressed as mean±SD. The in vitro cytotoxicities of MNPs, epirubicin and epirubicin-MNPs on C6 cells were evaluated by the IC50 values thereof.

Row | SMILES | doxorubicin delivered into normal brains by FUS ([1]; FUS treatment used safely) | doxorubicin delivery by FUS ([1]; increased delivery, at the expense of increased damage to brain tissue) | therapeutic range reported in vivo (breast carcinoma; human, in vivo) | clinical response rate (breast carcinoma; patients with breast carcinoma) | concentration at 6 hr (in vivo) | epirubicin accumulated in tissue (in vivo) | epirubicin concentration measured in tissues per iron (range) (in vivo) | epirubicin delivered, assessed by ICP-OES/HPLC (in vivo) | epirubicin delivered, assessed by MRI (in vivo) | mean immobilization ratio in tissues (in vivo) | IC50 (Rat glioma C6 cells)
1 | COc1cccc2c1C(=O)c1c(O)c3c(c(O)c1C2=O)C[C@@](O)(C(=O)CO)C[C@@H]3O[C@H]1C[C@H](N)[C@H](O)[C@H](C)O1 [doxorubicin] | 886±327 ng doxorubicin per gram of tissue | 5,336±659 ng/g | 819±482 ng/g tumor | 39% | – | – | – | – | – | – | –
2 | COc1cccc2c1C(=O)c1c(O)c3c(c(O)c1C2=O)C[C@@](O)(C(=O)CO)C[C@@H]3O[C@H]1C[C@H](N)[C@@H](O)[C@H](C)O1 [epirubicin] | – | – | – | – | 21700 ng/g | 1,336±1,182 ng epirubicin per gram of tissue | 383-415 μg epirubicin/mg iron ion | 1,162±1,028 ng/g | 1,197±226 ng/g | 395.6±17.3 μg epirubicin/mg iron ion | 6.7 µg/mL (≈ 12.3 µM)
